In PubChem BioAssay (NCI):
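Interpolation was linear, between the two tested concentrations surrounding the appropriate level; five concentrations were tested over 48 hours in 96-well plates. Abbreviation: GI50, concentration required for 50% inhibition of growth. Definition used: TGI = concentration required for complete inhibition of growth.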

Tests used:
Assay in all cases: growth of human tumour cells (NCI), 48 h
[1] = tested on: SK-MEL-28 melanoma
[2] = tested on: SK-OV-3 ovarian
[3] = tested on: HOP-92 NSCLC
[4] = tested on: T-47D breast
[5] = tested on: NCI-H522 lung
[6] = tested on: SR leukemia
[7] = tested on: NCI/ADR-RES ovarian
[8] = tested on: OVCAR-8 ovarian
[9] = tested on: SK-MEL-5 melanoma
[10] = tested on: MCF7 breast
[11] = tested on: COLO 205 colon
[12] = tested on: SNB-19 CNS
[13] = tested on: RPMI-8226 leukemia
[14] = tested on: OVCAR-3 ovarian

| SMILES | TGI [1] [µM] | TGI [2] [µM] | TGI [3] [µM] | TGI [4] [µM] | TGI [5] [µM] | TGI [6] [µM] | TGI [7] [µM] | TGI [8] [µM] | TGI [9] [µM] | TGI [10] [µM] | TGI [11] [µM] | TGI [12] [µM] | TGI [13] [µM] | TGI [14] [µM] | GI50 [6] [µM] | GI50 [14] [µM] |
| --- | --- | --- | --- | --- | --- | --- | --- | --- | --- | --- | --- | --- | --- | --- | --- | --- |
| c1ccc(-c2nn(-c3ccccc3)[n+](-c3ccccc3)n2)cc1 | > 100 | > 100 | 96.3 | > 100 | > 86.3 | > 44.4 | > 100 | > 100 | 14.1 | 25.9 | > 92.4 | > 100 |  |  |  |  |
| COc1ccccc1N1CCN(Cn2c(=O)oc3cccnc32)CC1 | > 100 | > 100 | > 100 | > 100 | > 100 | > 100 | > 100 | > 100 | > 100 | > 100 |  | > 100 | > 100 | > 100 |  |  |
| O=C(N/N=C\c1ccc2ccccc2c1)Nc1ccc([N+](=O)[O-])cc1 | > 84.8 | > 59.8 | 38.5 | > 59 | > 66.8 | > 100 | > 70.1 | > 66.1 | > 70.4 | > 100 | > 60 | > 100 | > 100 | 55.4 |  |  |
| O=C(CSCC(=O)N/N=C\c1ccc(-c2ccccc2)cc1)N/N=C\c1ccc(-c2ccccc2)cc1 | > 100 | 38.9 | > 100 | > 100 | 37.2 | 26.8 | > 100 | 58.2 | > 100 | > 100 | > 100 | > 100 |  | 30 |  |  |
| COc1ccc2c(c1)c1c(n2CCN2CCCCC2)-c2ccccc2CC1 | 38.5 | 40.9 | 31.9 | 35.6 | 21.8 | 42.4 | 33.2 | 29 | 37.3 | 30.2 | 29.5 | 46.9 | 56.1 | 33.8 |  |  |
| Cn1c2ccccc2c(=NNc2ccc(C(=O)O)cc2)c2ccccc21 | 60.7 | 56.7 | 57.7 | 58.9 | 27.2 | 42.7 | 57.9 | 33.5 | 32.7 | 26.5 | 32.3 | > 100 | 53.1 | 49.6 |  |  |
| OC1COC(n2c3ccc(Br)cc3c3ccc4c5ccccc5[nH]c4c32)C(O)C1O (stereo not drawn) | 28.9 | 17.7 | 9.38 | 20.1 | 11.3 | 13.3 | 19.1 | 15.8 | 5.2 | 14.2 | 3.65 | 28.2 | 15.8 | 12.5 |  |  |
| CCC1C(c2cc(OC)c(OC)c(OC)c2)c2cc3c(cc2OC1N1CCOCC1)OCO3 (stereo not drawn) |  | 23.4 | 41 | 61.8 | 21.8 | > 100 | > 100 | 17.6 | 6.38 | 15.5 | 22.4 | 25 |  | 18.7 |  |  |
| C(=C\C(SCc1ccccc1)SCc1ccccc1)/c1ccccc1 | > 10 | > 10 | > 10 | > 10 | > 10 | > 10 | > 10 | > 10 | > 10 | > 10 | > 10 | > 10 | > 10 | > 10 |  |  |
| COc1ccc(CCNC(=O)Cc2cc(OC)c(OC)cc2CO)cc1OC | > 100 | > 100 | > 100 | > 100 | > 100 | > 100 | > 100 | > 100 | > 100 | > 100 | > 100 |  | > 100 | > 100 |  |  |
| Cc1cccc(NC(=S)N=Nc2c(O)[nH]c3ccccc23)c1 | > 100 | > 100 | > 100 | > 100 | > 100 | > 100 | 85.9 | > 100 | > 100 | > 100 | > 100 | > 100 | > 100 | > 100 |  |  |
| CSc1ccc(/C=C2\N=C(c3ccccc3)N(c3nc4ccc(Sc5ccccc5)cc4[nH]3)C2=O)cc1 | 51.8 | 60.8 | 34 | 60.6 | 39.9 | > 87.5 | 72.3 | > 87.4 | 27.3 | 45.9 | 30.9 | > 89.2 | 57.2 | 35.9 | 13.7 |  |
| CNC1=CC(=O)C2=C(C1=O)[C@H]1CC[C@]3(C)C(=O)CC[C@H]3[C@@H]1CC2 | 34.4 | > 100 | 25.7 | 57.9 |  | > 60.8 | 42.1 | 29.5 | 27.6 | 47.5 | 33.3 | 40.8 | 48.5 | 9.3 |  |  |
| CN(C)c1ccc(/C=C/C=C(/C#N)c2ccccc2)cc1 | > 100 | > 74.9 | > 100 | > 100 | > 65.7 | > 39.7 | 35.3 | > 91.9 | > 100 | > 87.9 | > 92.1 | > 88.1 | > 95.3 | 28.5 |  |  |
| COC(=O)c1cc(C#Cc2cc(OC)ccc2OC)ccc1OC | > 100 | > 100 | 85.9 | 34.5 | > 100 | > 100 | > 100 | > 100 | 53.1 | > 100 | 52.3 | > 100 | 41.3 | 77.6 |  | 13.6 |
| Brc1ccc2[nH]cc(-c3nc(-c4c[nH]c5ccccc45)cs3)c2c1 | 20.9 | 21.4 | 7.86 | 31.7 | 3.73 | > 100 | 11.2 | 20.9 | 4.01 | > 100 | 2.76 | 12.2 | > 20.7 | 15.5 |  |  |
